Laboratory results taken from patent publication EP3029024A1, “2-(2-aminophenoxy)-3-chloronaphthalene-1,4-dione compounds having orexin 2 receptor agonist activity” (Ferrer Internacional, S.A., priority 2014, dated 2016).
pEC50: −log10 of the molar value.

Target: T1, OX2 receptor (Homo sapiens, UniProt O43614)
T1 construct: expressed in transfected cells; host or cells: unnamed cell line stably co-expressing apoaequorin and OX2 receptor, cultured in Ham's F12 with G418 and Zeocin
T1 sequence (O43614 1-444): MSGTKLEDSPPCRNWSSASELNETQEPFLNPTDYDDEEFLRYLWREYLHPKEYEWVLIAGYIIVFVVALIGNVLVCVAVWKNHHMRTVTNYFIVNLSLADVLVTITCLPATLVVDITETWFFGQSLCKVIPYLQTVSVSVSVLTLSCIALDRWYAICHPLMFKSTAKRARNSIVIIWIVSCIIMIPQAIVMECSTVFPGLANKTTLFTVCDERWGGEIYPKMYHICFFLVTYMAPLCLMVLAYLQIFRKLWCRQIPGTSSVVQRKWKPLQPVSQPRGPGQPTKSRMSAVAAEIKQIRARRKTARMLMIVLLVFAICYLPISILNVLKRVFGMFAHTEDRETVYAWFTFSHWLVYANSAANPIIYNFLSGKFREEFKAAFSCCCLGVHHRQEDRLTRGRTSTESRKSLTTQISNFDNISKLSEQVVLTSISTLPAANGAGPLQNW
Assay: Functional assay for in vitro evaluation of OX2 receptor agonist activity (aequorin light emission, increase in intracellular calcium)
Type: cell-based
Conditions: OX2R Agonism
Source text: The method of choice for the in vitro evaluation of OX2 receptor agonists is the measure of the increase in intracellular calcium induced by the activation of the receptor. OX2 receptor is stably expressed in a cell line co-expressing apoaequorin, a photoprotein which needs a hydrophobic prosthetic group, coelenterazine, to be converted to aequorin, the active enzyme. After calcium binding, aequorin oxidizes coelenterazine to coelenteramide with the production of CO2 and emission of light. The measurement of light emission after the addition of agonists reflects its ability to activate the receptor.
Cell line co-expressing apoaequorin and OX2 receptor were cultured as a monolayer at 37°C and 5% CO2 in complete Ham's F12 medium supplemented with FBS 10%, penicillin (100 IU/ml)-streptomycin (100 µg/ml), Geneticin (G418, 400 µg/ml) and Zeocin (250 µg/ml). Before starting the experiment, cells were incubated with a medium without antibiotics for 18 hours. After this incubation, the cells were detached from the culture plates and they were resuspended in DMEM-F12/0.1% BSA at a final concentration of 5x10^6 cells/ml. Cells were then incubated with 5 µM of coelenterazine at room temperature on a vertical rotating wheel for at least 3 hours. Following incubation with coelenterazine cells were diluted 1:10 with DMEM-F12/0.1% BSA and incubated in magnetic agitation for 1 hour.
Dose-response curves were performed for each compound. 50 µl of pre-loaded cells were injected over test compounds in a 96 wells plate. Results were expressed as the concentration of the compound where 50% of its maximal effect is observed (EC50), related to the maximum effect induced by the orexin peptide on the receptor. OX2R Agonism

[1] = Table 1, cell line co-expressing apoaequorin and OX2 receptor, related to the maximum effect induced by the orexin peptide
[2] = Table 2, comparative examples (compounds described in PCT/EP2014/062349), same experimental methodology

Row | Compound | pEC50 [1] | pEC50 [2]
1 | COc1ccc(N)c(OC2=C(Cl)C(=O)c3ccccc3C2=O)c1C [Example 1, 2-(6-amino-3-methoxy-2-methylphenoxy)-3-chloronaphthalene-1,4-dione] | 7.55 | –
2 | COc1ccc(N)c(OC2=C(Cl)C(=O)c3ccccc3C2=O)c1Cl [Example 2, 2-(6-amino-2-chloro-3-methoxyphenoxy)-3-chloronaphthalene-1,4-dione] | 7.30 | –
3 | Cc1c(Cl)ccc(OC2=C(Cl)C(=O)c3ccccc3C2=O)c1N [Example 3, 2-(2-amino-4-chloro-3-methylphenoxy)-3-chloronaphthalene-1,4-dione] | 6.96 | –
4 | Cc1cc(C)c(N)c(OC2=C(Cl)C(=O)c3ccccc3C2=O)c1 [Example 4, 2-(2-amino-3,5-dimethylphenoxy)-3-chloronaphthalene-1,4-dione] | 7.22 | –
5 | Cc1cc(Cl)cc(N)c1OC1=C(Cl)C(=O)c2ccccc2C1=O [Example 5, 2-(2-amino-4-chloro-6-methylphenoxy)-3-chloronaphthalene-1,4-dione] | 7.10 | –
6 | Cc1cc(Br)cc(N)c1OC1=C(Cl)C(=O)c2ccccc2C1=O [Example 6, 2-(2-amino-4-bromo-6-methylphenoxy)-3-chloronaphthalene-1,4-dione] | 7.05 | –
7 | Cc1ccc(OC2=C(Cl)C(=O)c3ccccc3C2=O)c(N)c1C [Example 7, 2-(2-amino-3,4-dimethylphenoxy)-3-chloronaphthalene-1,4-dione] | 7.30 | –
8 | Cc1cc(C)c(N)c(OC2=C(Cl)C(=O)c3ccccc3C2=O)c1C [Example 8, 2-(2-amino-3,5,6-trimethylphenoxy)-3-chloronaphthalene-1,4-dione] | 7.24 | –
9 | Cc1cc(C)c(OC2=C(Cl)C(=O)c3ccccc3C2=O)c(N)c1C [Example 9, 2-(2-amino-3,4,6-trimethylphenoxy)-3-chloronaphthalene-1,4-dione] | 6.89 | –

The remaining lines, values ahead:

Row | pEC50 [1] | pEC50 [2] | Compound
10 | – | 6.29 | Nc1ccccc1OC1=C(Cl)C(=O)c2ccccc2C1=O [Example C1]
11 | – | 6.62 | Cc1ccc(OC2=C(Cl)C(=O)c3ccccc3C2=O)c(N)c1 [Example C2]
12 | – | 6.13 | Nc1cc(Cl)ccc1OC1=C(Cl)C(=O)c2ccccc2C1=O [Example C3]
13 | – | 6.13 | Nc1ccc(Cl)cc1OC1=C(Cl)C(=O)c2ccccc2C1=O [Example C4]
14 | – | 6.24 | Nc1cc(F)ccc1OC1=C(Cl)C(=O)c2ccccc2C1=O [Example C5]
15 | – | 5.39 | COC(=O)c1ccc(OC2=C(Cl)C(=O)c3ccccc3C2=O)c(N)c1 [Example C6]
16 | – | 5.36 | CC(=O)c1ccc(OC2=C(Cl)C(=O)c3ccccc3C2=O)c(N)c1 [Example C7]
17 | – | 6.15 | Nc1cc(C(F)(F)F)ccc1OC1=C(Cl)C(=O)c2ccccc2C1=O [Example C8]
18 | – | 6.41 | Nc1ccc(F)cc1OC1=C(Cl)C(=O)c2ccccc2C1=O [Example C9]
19 | – | 6.17 | Cc1cc(N)c(OC2=C(Cl)C(=O)c3ccccc3C2=O)cc1C [Example C10]
20 | – | 6.41 | Nc1cc(Cl)cc(Cl)c1OC1=C(Cl)C(=O)c2ccccc2C1=O [Example C11]
21 | – | 6.82 | Cc1ccc(C)c(OC2=C(Cl)C(=O)c3ccccc3C2=O)c1N [Example C12]
